Columns and labels:
[1] = molecular target: ATP-binding cassette sub-family C member 2 (Homo sapiens, UniProt Q92887); assay: Inhibition of recombinant human ABCC2 expressed in insect Sf21 cell plasma membrane vesicles assessed as inhibition of transporter-mediated [3H]-estradiol-17beta-glucuronide uptake by liquid scintillation counting analysis; assay type: ADME, cell membranes
[2] = molecular target: T1, ATP-binding cassette sub-family C member 3 (Homo sapiens, UniProt O15438); assay: Inhibition of recombinant human ABCC3 expressed in baculovirus infected insect Sf21 cell plasma membrane vesicles assessed as inhibition of transporter-mediated [3H]-estradiol-17beta-glucuronide uptake by liquid scintillation counting analysis; assay type: ADME
T1 sequence (O15438 whole entry): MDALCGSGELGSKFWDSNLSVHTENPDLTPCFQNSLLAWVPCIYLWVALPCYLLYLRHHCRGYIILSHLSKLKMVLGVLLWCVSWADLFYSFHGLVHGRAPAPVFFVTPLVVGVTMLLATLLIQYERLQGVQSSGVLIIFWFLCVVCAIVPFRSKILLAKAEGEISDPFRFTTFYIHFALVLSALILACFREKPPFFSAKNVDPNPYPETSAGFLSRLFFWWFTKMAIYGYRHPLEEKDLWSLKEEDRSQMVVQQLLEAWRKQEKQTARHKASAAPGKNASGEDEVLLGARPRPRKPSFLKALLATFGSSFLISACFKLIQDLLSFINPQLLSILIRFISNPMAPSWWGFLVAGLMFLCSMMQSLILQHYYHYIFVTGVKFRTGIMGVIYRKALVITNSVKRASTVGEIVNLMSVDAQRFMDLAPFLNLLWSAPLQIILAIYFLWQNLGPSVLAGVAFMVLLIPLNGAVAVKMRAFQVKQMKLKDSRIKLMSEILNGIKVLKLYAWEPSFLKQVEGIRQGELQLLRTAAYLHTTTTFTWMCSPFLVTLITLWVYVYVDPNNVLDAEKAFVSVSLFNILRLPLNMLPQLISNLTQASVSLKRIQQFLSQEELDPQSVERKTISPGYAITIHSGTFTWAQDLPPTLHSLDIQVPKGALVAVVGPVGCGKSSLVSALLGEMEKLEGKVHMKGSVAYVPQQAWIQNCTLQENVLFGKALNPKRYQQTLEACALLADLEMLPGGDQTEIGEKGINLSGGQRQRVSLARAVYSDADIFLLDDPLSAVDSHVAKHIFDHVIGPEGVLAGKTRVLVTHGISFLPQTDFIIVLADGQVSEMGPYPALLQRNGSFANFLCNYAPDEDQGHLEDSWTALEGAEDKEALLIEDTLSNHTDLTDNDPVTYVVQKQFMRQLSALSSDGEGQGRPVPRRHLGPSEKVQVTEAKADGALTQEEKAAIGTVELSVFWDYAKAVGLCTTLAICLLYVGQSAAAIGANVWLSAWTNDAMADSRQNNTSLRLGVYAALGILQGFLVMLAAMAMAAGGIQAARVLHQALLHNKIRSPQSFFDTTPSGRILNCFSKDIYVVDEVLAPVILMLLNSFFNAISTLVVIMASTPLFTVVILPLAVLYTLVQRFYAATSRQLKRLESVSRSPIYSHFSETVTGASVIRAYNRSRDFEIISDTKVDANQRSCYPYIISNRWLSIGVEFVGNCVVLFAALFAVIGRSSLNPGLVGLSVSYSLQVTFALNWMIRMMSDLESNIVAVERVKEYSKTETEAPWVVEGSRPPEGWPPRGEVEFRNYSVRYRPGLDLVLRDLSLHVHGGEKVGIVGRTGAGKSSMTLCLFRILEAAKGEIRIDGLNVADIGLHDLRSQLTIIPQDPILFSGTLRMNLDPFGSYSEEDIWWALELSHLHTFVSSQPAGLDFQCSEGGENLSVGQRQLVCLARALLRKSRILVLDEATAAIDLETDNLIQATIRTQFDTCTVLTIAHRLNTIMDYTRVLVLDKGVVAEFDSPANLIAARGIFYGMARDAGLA

[3] = molecular target: T2, ATP-binding cassette sub-family C member 4 (Homo sapiens, UniProt O15439); assay: Inhibition of recombinant human ABCC4 expressed in baculovirus infected insect Sf21 cell plasma membrane vesicles assessed as inhibition of transporter-mediated [3H]-estradiol-17beta-glucuronide uptake by liquid scintillation counting analysis; assay type: ADME
T2 sequence (O15439 whole entry): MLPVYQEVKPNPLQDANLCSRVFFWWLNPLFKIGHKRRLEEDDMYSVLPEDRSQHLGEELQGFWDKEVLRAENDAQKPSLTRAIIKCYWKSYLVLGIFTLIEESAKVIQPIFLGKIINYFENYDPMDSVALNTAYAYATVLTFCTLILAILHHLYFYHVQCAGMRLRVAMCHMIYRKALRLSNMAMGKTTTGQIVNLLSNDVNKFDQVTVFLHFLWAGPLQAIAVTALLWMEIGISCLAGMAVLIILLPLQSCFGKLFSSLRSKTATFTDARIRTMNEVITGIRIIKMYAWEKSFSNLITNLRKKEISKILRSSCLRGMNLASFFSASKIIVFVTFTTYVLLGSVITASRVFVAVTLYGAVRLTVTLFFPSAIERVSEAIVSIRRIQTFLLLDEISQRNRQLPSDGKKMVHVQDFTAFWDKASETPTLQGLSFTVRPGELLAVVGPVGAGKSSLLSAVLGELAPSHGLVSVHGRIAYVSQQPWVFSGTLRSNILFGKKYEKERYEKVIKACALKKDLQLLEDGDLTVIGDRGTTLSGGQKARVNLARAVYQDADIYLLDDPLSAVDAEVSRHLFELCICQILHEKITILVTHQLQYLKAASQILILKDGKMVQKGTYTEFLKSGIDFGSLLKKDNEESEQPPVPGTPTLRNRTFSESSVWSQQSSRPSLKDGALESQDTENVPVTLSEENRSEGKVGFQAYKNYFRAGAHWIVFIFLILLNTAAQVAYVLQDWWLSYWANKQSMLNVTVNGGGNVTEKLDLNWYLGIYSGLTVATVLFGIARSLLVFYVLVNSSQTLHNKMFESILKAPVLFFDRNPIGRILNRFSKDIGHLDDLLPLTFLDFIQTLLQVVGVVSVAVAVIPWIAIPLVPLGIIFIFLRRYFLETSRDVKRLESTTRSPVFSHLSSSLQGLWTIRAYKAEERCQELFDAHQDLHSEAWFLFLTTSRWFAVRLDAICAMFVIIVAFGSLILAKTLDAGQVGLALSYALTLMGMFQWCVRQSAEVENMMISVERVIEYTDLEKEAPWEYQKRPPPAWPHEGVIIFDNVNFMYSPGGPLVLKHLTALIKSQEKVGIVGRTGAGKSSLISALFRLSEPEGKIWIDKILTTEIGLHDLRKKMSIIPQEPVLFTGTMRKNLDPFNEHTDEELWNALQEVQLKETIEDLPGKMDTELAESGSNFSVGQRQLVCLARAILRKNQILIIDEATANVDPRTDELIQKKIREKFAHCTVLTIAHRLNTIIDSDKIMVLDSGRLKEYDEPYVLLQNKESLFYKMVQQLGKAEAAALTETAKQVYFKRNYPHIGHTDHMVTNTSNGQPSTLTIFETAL

Jejunum [4] = assay: Drug transport across apical to basolateral side in Abcc3/Abcc4-deficient mouse jejunal tissue explants at 50 uM by ussing chamber analysis; assay type: ADME
Jejunum [5] = assay: Drug transport across ligated jejunum in wild type mouse assessed as drug level in portal blood at 5 uM by liquid scintillation counting analysis; assay type: ADME, tissue-based; settings: TDE = time-dependent effect
Jejunum [6] = assay: Drug transport across ligated jejunum in Abcc3-deficient mouse assessed as drug level in portal blood at 5 uM by liquid scintillation counting analysis; assay type: ADME, tissue-based
Jejunum [7] = assay: Drug transport across ligated jejunum in Abcc4-deficient mouse assessed as drug level in portal blood at 5 uM by liquid scintillation counting analysis; assay type: ADME, tissue-based
Jejunum [8] = assay: Drug transport across ligated jejunum in Abcc3/Abcc4-deficient mouse assessed as drug level in portal blood at 5 uM by liquid scintillation counting analysis; assay type: ADME, tissue-based
Jejunum [9] = assay: Drug transport across ligated jejunum in Abcc3/Abcc4-deficient mouse assessed as drug level in peripheral blood at 5 uM by liquid scintillation counting analysis; assay type: ADME, tissue-based; settings: other
Jejunum [10] = assay: Drug transport across ligated jejunum in wild type mouse assessed as drug level in peripheral blood at 5 uM by liquid scintillation counting analysis; assay type: ADME, tissue-based; settings: other
[11] = Drug uptake in bile of Abcc3/Abcc4-deficient mouse at 5 uM by liquid scintillation counting analysis; assay type: ADME, tissue-based; settings: in vivo
Intestine [12] = assay: Drug level in Abcc3-deficient mouse intestine at 5 uM by liquid scintillation counting analysis; assay type: ADME, tissue-based; settings: in vivo
[13] = Ratio of recombinant human ABCC4-mediated drug uptake in insect Sf21 cell plasma membrane vesicles to recombinant human ABCC2-mediated drug uptake in insect Sf21 cell plasma membrane vesicles; assay type: ADME, cell membranes
[14] = Ratio of recombinant human ABCC4-mediated drug uptake in insect Sf21 cell plasma membrane vesicles to recombinant human ABCC3-mediated drug uptake in insect Sf21 cell plasma membrane vesicles; assay type: ADME, cell membranes
[15] = molecular target: Multidrug resistance-associated protein 1 (Homo sapiens, UniProt P33527); assay: Activity of recombinant human ABCC1 expressed in baculovirus infected insect Sf21 cell plasma membrane vesicles assessed as transporter-mediated drug uptake at 10 uM by liquid scintillation counting analysis in presence of ATP; assay type: ADME; settings: sf21, 10 µM, TDE = time-dependent effect
Sequence of Multidrug resistance-associated protein 1 (P33527 whole entry): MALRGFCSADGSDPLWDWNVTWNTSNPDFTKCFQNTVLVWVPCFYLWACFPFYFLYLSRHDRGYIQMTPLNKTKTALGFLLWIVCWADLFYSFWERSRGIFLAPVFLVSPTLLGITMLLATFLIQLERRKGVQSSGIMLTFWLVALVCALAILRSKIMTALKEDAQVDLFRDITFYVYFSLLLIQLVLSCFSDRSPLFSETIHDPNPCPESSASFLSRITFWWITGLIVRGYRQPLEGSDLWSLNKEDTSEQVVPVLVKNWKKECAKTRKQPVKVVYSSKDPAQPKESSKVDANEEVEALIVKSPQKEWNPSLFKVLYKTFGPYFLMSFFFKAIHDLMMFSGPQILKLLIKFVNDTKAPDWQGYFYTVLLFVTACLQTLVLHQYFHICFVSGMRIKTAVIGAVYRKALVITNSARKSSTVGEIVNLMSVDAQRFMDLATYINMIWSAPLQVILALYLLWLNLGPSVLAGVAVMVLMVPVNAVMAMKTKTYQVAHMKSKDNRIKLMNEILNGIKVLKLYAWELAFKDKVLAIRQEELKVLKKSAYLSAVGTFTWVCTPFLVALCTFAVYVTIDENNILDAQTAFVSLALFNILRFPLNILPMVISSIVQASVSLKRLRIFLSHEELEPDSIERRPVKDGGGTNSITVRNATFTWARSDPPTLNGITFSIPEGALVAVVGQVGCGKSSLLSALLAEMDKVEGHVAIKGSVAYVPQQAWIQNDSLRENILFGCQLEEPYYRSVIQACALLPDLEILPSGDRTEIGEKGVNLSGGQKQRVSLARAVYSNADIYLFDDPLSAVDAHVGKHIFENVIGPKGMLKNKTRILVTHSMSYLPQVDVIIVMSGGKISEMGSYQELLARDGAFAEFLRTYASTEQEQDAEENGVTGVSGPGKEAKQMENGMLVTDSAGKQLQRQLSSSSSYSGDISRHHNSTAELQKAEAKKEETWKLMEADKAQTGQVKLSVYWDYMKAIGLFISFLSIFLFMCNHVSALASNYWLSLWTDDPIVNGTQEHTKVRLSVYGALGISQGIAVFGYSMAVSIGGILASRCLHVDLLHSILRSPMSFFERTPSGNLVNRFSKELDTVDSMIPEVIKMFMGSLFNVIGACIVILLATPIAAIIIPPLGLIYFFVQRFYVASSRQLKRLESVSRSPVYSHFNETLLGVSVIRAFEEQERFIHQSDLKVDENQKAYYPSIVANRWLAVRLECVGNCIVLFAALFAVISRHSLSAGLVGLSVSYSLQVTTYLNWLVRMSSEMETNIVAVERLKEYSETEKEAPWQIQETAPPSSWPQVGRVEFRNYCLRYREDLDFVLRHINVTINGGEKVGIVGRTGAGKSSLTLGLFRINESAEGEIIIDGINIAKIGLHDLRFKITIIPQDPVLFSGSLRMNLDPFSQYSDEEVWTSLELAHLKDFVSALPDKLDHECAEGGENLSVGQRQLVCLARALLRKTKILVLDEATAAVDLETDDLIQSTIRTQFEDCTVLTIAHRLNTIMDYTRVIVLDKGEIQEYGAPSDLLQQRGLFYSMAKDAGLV

[16] = molecular target: T1, ATP-binding cassette sub-family C member 3; assay: Activity of recombinant human ABCC3 expressed in baculovirus infected insect Sf21 cell plasma membrane vesicles assessed as transporter-mediated drug uptake at 10 uM by liquid scintillation counting analysis in presence of ATP; assay type: ADME; settings: sf21, 10 µM, TDE = time-dependent effect
[17] = molecular target: T2, ATP-binding cassette sub-family C member 4; assay: Activity of recombinant human ABCC4 expressed in baculovirus infected insect Sf21 cell plasma membrane vesicles assessed as transporter-mediated drug uptake at 10 uM by liquid scintillation counting analysis in presence of ATP; assay type: ADME; settings: sf21, 10 µM, TDE = time-dependent effect
Jejunum [18] = assay: Drug transport across apical to basolateral side in Abcc4-deficient mouse jejunal tissue explants at 50 uM by ussing chamber analysis; assay type: ADME
Jejunum [19] = assay: Drug transport across apical to basolateral side in Abcc4-deficient mouse jejunal tissue explants at 5 uM by ussing chamber analysis relative to wild type mouse; assay type: ADME
Jejunum [20] = assay: Drug transport across apical to basolateral side in Abcc3/Abcc4-deficient mouse jejunal tissue explants at 5 uM by ussing chamber analysis relative to wild type mouse; assay type: ADME
Intestine [21] = assay: Drug level in Abcc4-deficient mouse intestine at 5 uM by liquid scintillation counting analysis; assay type: ADME, tissue-based; settings: in vivo
Intestine [22] = assay: Drug level in Abcc3/Abcc4-deficient mouse intestine at 5 uM by liquid scintillation counting analysis; assay type: ADME, tissue-based; settings: in vivo
Intestine [23] = assay: Drug level in wild type mouse intestine at 5 uM by liquid scintillation counting analysis; assay type: ADME, tissue-based; settings: in vivo
Kidney [24] = assay: Drug level in Abcc3-deficient mouse kidney at 5 uM by liquid scintillation counting analysis; assay type: ADME, tissue-based; settings: in vivo
Kidney [25] = assay: Drug level in Abcc4-deficient mouse kidney at 5 uM by liquid scintillation counting analysis; assay type: ADME, tissue-based; settings: in vivo
Kidney [26] = assay: Drug level in Abcc3/Abcc4-deficient mouse kidney at 5 uM by liquid scintillation counting analysis; assay type: ADME, tissue-based; settings: in vivo
Kidney [27] = assay: Drug level in wild type mouse kidney at 5 uM by liquid scintillation counting analysis; assay type: ADME, tissue-based; settings: in vivo
Liver [28] = assay: Drug level in Abcc3-deficient mouse liver at 5 uM by liquid scintillation counting analysis; assay type: ADME, tissue-based; settings: in vivo
Liver [29] = assay: Drug level in Abcc4-deficient mouse liver at 5 uM by liquid scintillation counting analysis; assay type: ADME, tissue-based; settings: in vivo
Liver [30] = assay: Drug level in Abcc3/Abcc4-deficient mouse liver at 5 uM by liquid scintillation counting analysis; assay type: ADME, tissue-based; settings: in vivo
Liver [31] = assay: Drug level in wild type mouse liver at 5 uM by liquid scintillation counting analysis; assay type: ADME, tissue-based; settings: in vivo
[32] = Drug excretion in Abcc3-deficient mouse urine at 5 uM by liquid scintillation counting analysis; assay type: ADME, tissue-based; settings: in vivo
[33] = Drug excretion in Abcc4-deficient mouse urine at 5 uM by liquid scintillation counting analysis; assay type: ADME, tissue-based; settings: in vivo
[34] = Drug excretion in Abcc3/Abcc4-deficient mouse urine at 5 uM by liquid scintillation counting analysis; assay type: ADME, tissue-based; settings: in vivo
[35] = Drug excretion in wild type mouse urine at 5 uM by liquid scintillation counting analysis; assay type: ADME, tissue-based; settings: in vivo

Sequence of ATP-binding cassette sub-family C member 2 (Q92887 whole entry): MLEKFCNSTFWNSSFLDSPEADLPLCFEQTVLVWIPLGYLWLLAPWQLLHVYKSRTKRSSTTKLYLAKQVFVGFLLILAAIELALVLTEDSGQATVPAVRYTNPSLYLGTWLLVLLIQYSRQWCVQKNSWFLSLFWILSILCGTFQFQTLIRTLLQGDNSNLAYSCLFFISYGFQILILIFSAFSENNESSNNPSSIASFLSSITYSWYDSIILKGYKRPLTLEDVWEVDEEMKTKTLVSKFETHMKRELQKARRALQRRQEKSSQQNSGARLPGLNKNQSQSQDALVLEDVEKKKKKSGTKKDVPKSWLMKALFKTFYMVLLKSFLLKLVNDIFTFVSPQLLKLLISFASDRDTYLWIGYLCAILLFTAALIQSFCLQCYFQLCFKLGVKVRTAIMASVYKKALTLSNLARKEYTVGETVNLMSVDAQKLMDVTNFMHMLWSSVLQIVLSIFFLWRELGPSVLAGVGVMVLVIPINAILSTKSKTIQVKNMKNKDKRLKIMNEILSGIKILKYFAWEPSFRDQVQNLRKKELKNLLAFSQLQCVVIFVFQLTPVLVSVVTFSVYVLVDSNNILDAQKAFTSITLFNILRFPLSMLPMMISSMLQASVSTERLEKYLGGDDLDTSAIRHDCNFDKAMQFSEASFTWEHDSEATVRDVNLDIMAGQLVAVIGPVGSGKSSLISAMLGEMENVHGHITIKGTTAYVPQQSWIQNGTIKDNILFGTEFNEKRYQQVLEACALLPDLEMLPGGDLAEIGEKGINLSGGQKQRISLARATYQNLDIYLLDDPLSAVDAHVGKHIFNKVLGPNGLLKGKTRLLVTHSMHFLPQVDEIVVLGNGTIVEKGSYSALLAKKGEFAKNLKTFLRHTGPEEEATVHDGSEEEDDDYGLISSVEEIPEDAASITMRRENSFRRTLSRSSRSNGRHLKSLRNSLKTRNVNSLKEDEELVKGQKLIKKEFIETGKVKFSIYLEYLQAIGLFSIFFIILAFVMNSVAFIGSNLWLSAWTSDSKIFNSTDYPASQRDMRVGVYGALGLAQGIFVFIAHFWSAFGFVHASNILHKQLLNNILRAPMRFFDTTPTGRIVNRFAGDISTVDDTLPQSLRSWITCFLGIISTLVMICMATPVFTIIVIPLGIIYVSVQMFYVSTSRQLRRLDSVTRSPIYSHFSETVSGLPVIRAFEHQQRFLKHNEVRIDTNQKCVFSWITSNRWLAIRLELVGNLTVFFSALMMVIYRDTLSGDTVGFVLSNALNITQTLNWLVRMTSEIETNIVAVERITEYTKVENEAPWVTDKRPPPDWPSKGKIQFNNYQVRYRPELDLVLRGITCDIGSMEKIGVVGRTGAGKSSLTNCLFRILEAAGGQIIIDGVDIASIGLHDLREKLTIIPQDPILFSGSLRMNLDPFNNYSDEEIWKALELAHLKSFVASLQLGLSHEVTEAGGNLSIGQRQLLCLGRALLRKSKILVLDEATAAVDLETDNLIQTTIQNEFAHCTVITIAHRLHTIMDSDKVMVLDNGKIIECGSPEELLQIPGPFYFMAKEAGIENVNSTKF

SMILES: N[C@@H](C(=O)N[C@@H]1C(=O)N2C(C(=O)O)=C(Cl)CS[C@H]12)c1ccccc1 [CEFACLOR ANHYDROUS]
- inhibition (INH) [1]: Active
- inhibition (INH) [2]: Active
- inhibition (INH) [3]: Active

SMILES: CC1=C(C(=O)O)N2C(=O)[C@@H](NC(=O)[C@H](N)c3ccc(O)cc3)[C@H]2SC1 [CEFADROXIL]
- Drug transport (Jejunum [4]): Active
- Drug transport (Jejunum [5]): tde
- Drug transport (Jejunum [6]): Active
- Drug transport (Jejunum [7]): Active
- Drug transport (Jejunum [8]): Not Active
- Drug transport (Jejunum [9]): Not Active
- Drug transport (Jejunum [10]): Active
- Drug uptake [11]: < 0.4%
- Drug uptake (Intestine [12]): Active
- Ratio [13]: 3
- Ratio [14]: 6
- Activity [15]: tde
- Activity [16]: tde
- Activity [17]: tde
- Drug transport (Jejunum [18]): Active
- Drug transport (Jejunum [19]): 50%
- Drug transport (Jejunum [20]): 50%
- Drug uptake (Intestine [21]): Active
- Drug uptake (Intestine [22]): Active
- Drug uptake (Intestine [23]): Active
- Drug uptake (Kidney [24]): Active
- Drug uptake (Kidney [25]): Active
- Drug uptake (Kidney [26]): Active
- Drug uptake (Kidney [27]): Active
- Drug uptake (Liver [28]): Active
- Drug uptake (Liver [29]): Active
- Drug uptake (Liver [30]): Active
- Drug uptake (Liver [31]): Active
- Drug excretion [32]: metabolite_detected
- Drug excretion [33]: metabolite_detected
- Drug excretion [34]: metabolite_detected
- Drug excretion [35]: metabolite_detected

SMILES: Cn1nnnc1SCC1=C(C(=O)O)N2C(=O)[C@@H](NC(=O)[C@H](O)c3ccccc3)[C@H]2SC1 [CEFAMANDOLE]
- inhibition (INH) [1]: Active
- inhibition (INH) [2]: Active
- inhibition (INH) [3]: Active

SMILES: CO[C@@]1(NC(=O)CSCC#N)C(=O)N2C(C(=O)O)=C(CSc3nnnn3C)CS[C@@H]21 [CEFMETAZOLE]
- inhibition (INH) [1]: Active
- inhibition (INH) [2]: Active
- inhibition (INH) [3]: Active

SMILES: CCN1CCN(C(=O)N[C@@H](C(=O)N[C@@H]2C(=O)N3C(C(=O)O)=C(CSc4nnnn4C)CS[C@H]23)c2ccc(O)cc2)C(=O)C1=O [CEFOPERAZONE]
- inhibition (INH) [1]: Active
- inhibition (INH) [2]: Active
- inhibition (INH) [3]: Active

SMILES: CO[C@@]1(NC(=O)Cc2cccs2)C(=O)N2C(C(=O)O)=C(COC(N)=O)CS[C@@H]21 [CEFOXITIN]
- inhibition (INH) [1]: Active
- inhibition (INH) [2]: Active
- inhibition (INH) [3]: Active

SMILES: CO/N=C(\C(=O)N[C@@H]1C(=O)N2C(C(=O)O)=C(CSc3nc(=O)c(=O)[nH]n3C)CS[C@H]12)c1csc(N)n1 [CEFTRIAXONE]
- inhibition (INH) [1]: Active
- inhibition (INH) [2]: Active
- inhibition (INH) [3]: Active

SMILES: CO/N=C(\C(=O)N[C@@H]1C(=O)N2C(C(=O)O)=C(COC(N)=O)CS[C@H]12)c1ccco1 [CEFUROXIME]
- inhibition (INH) [1]: Active
- inhibition (INH) [2]: Active
- inhibition (INH) [3]: Active

SMILES: CC1=C(C(=O)O)N2C(=O)[C@@H](NC(=O)[C@H](N)c3ccccc3)[C@H]2SC1 [CEPHALEXIN ANHYDROUS]
- inhibition (INH) [1]: Active
- inhibition (INH) [2]: Active
- inhibition (INH) [3]: Active

SMILES: CC1=C(C(=O)O)N2C(=O)[C@@H](NC(=O)[C@H](N)C3=CCC=CC3)[C@H]2SC1 [CEPHRADINE]
- inhibition (INH) [1]: Active
- inhibition (INH) [2]: Active
- inhibition (INH) [3]: Active

From ChEMBL document CHEMBL3526024, “Oral availability of cefadroxil depends on ABCC3 and ABCC4” (Drug Metab Dispos, 2012)
